# Results reported in patent publication US9834542B2, “LXR modulators” (BRISTOL-MYERS SQUIBB COMPANY, priority 2013, dated 2017).
# Molecular target: T1, LXRβ (Homo sapiens, UniProt P55055)
# T1 construct: Co-transfection expression plasmids, comprising full-length LXRα (pCMX-h LXRα[…] or LXRβ (pCMX-hLXRβ)); expressed in transfected cells; host or cells: CV-1 African Green Monkey Kidney Cells
# T1 sequence (P55055 1-460): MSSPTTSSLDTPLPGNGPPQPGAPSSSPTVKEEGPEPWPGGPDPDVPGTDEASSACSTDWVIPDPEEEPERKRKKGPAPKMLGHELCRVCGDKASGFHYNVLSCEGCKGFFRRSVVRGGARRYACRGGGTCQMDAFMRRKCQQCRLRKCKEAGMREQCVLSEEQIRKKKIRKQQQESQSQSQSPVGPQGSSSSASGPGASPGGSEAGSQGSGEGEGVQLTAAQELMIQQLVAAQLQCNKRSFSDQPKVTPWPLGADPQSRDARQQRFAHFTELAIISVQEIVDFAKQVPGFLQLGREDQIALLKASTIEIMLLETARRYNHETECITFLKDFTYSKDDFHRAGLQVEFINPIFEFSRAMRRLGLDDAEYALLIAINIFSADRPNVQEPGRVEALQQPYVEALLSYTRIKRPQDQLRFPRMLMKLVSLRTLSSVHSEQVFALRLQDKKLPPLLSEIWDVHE
# T1 sequence (P19793 1-462 partner): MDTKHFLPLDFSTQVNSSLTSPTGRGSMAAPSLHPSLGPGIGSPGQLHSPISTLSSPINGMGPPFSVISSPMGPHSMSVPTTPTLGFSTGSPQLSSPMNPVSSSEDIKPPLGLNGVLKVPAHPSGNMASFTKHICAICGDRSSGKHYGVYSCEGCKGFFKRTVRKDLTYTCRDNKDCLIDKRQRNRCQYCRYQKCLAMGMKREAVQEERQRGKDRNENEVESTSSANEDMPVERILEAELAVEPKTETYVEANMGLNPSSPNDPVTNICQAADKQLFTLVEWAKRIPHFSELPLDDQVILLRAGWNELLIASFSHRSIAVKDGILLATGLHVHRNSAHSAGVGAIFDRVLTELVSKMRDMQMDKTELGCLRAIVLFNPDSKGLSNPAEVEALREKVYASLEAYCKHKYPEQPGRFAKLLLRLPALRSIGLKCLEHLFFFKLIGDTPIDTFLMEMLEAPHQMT
# Experiment: Co-transfection assay (LXRE luciferase reporter), LXRβ
# Assay type: cell-based
# Details: for EC50: CV-1 cells transfected with pCMX-hLXRβ and LXREx1-Tk-Luciferase, 20 hours incubation; for Emax: LXRβ co-transfection, relative to high control 1-(2,4-difluorobenzyl)-2-oxo-6-(4-phenoxyphenyl)-4-(trifluoromethyl)-1,2-dihydropyridine-3-carbonitrile, read-out: % Efficacy
# Method in brief: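 Cell-based LXRβ agonism measured as LXRE-luciferase induction in transiently transfected CV-1 cells after 20 h treatment. Potency is the curve-fit EC50; efficacy is expressed as percent of a full-agonist control's maximal response.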
Structure (SMILES),EC50,Emax
"Cc1nc(-c2cc(-c3cc(F)c(CO)c(S(C)(=O)=O)c3)ccc2-n2cc(C(F)(F)F)nc2C)c(-c2ccc3c(c2)C(O)C(F)(F)O3)o1 (stereo not shown) [Example 487, 2,2-difluoro-5-(4-(3′-fluoro-4′-(hydroxymethyl)-4-(2-methyl-4-(trifluoromethyl)-1H-imidazol-1-yl)-5′-(methylsulfonyl)biphenyl-3-yl)-2-methyloxazol-5-yl)-2,3-dihydrobenzofuran-3-ol]",815 nM,59%
"CCc1nc(-c2cc(-c3cc(F)c(CO)c(S(C)(=O)=O)c3)ccc2-n2cc(C(F)(F)F)nc2C)c(-c2ccc3c(c2)OC(F)(F)O3)o1 [Example 479, (3′-(5-(2,2-difluorobenzo[d][1,3]dioxol-5-yl)-2-ethyloxazol-4-yl)-3-fluoro-4′-(2-methyl-4-(trifluoromethyl)-1H-imidazol-1-yl)-5-(methylsulfonyl)biphenyl-4-yl)methanol]",30 nM,81%
"Cc1nc(-c2cc(-c3cc(F)c(CO)c(S(C)(=O)=O)c3)ccc2-n2cc(C(F)(F)F)nc2C)c(-c2ccc(Cl)c(F)c2)o1 [Example 499, (3′-(5-(4-chloro-3-fluorophenyl)-2-methyloxazol-4-yl)-3-fluoro-4′-(2-methyl-4-(trifluoromethyl)-1H-imidazol-1-yl)-5-(methylsulfonyl)biphenyl-4-yl)methanol]",50 nM,74%
Cc1nc(-c2cc(-c3cccc(S(C)(=O)=O)c3)ccc2-n2cc(C(F)(F)F)nc2C)c(-c2cc(F)cc(F)c2)o1 [Example 447],269 nM,64%
"Cc1nc(-c2cc(-c3cc(F)c(CO)c(S(C)(=O)=O)c3)ccc2-n2cc(C(F)(F)F)nc2C)c(-c2ccc(OC3CCCCC3)nc2)o1 [Example 409, (3′-(5-(6-(cyclohexyloxy)pyridin-3-yl)-2-methyloxazol-4-yl)-3-fluoro-4′-(2-methyl-4-(trifluoromethyl)-1H-imidazol-1-yl)-5-(methylsulfonyl)biphenyl-4-yl)methanol]",130 nM,45%
"Cc1nc(C(F)(F)F)cn1-c1ccc(-c2cc(Cl)c(CO)c(S(C)(=O)=O)c2)cc1-n1nncc1-c1ccc2c(c1)OC(F)(F)O2 [Example 21, {3-chloro-3′-[5-(2,2-difluoro-1,3-benzodioxol-5-yl)-1H-1,2,3-triazol-1-yl]-5-(methylsulfonyl)-4′-[2-methyl-4-(trifluoromethyl)-1H-imidazol-1-yl]biphenyl-4-yl}methanol]",502 nM,65%
"Cc1nc(C(F)F)cn1-c1ccc(-c2cccc(S(C)(=O)=O)c2)cc1-n1nncc1-c1ccc(OC(F)(F)F)c(F)c1 [Example 169, 1-{4-[4-(difluoromethyl)-2-methyl-1H-imidazol-1-yl]-3′-(methylsulfonyl)biphenyl-3-yl}-5-{3-fluoro-4-[(trifluoromethyl)oxy]phenyl}-1H-1,2,3-triazole]",570 nM,93%
C=Cc1nc(-c2cc(-c3cccc(S(C)(=O)=O)c3)ccc2-n2cc(C(F)(F)F)nc2C)c(-c2ccc3c(c2)OC(F)(F)O3)o1 [Example 532],16 nM,89%
"Cc1nc(-c2ccc3c(c2)OC(F)(F)O3)c(-c2cc(-c3cccc(S(C)(=O)=O)c3)ccc2-n2cc(C(F)(F)F)nc2C)o1 [Example 615, 4-(2,2-difluorobenzo[d][1,3]dioxol-5-yl)-2-methyl-5-(4-(2-methyl-4-(trifluoromethyl)-1H-imidazol-1-yl)-3′-(methylsulfonyl)-[1,1′-biphenyl]-3-yl)oxazol]",31 nM,96%
"Cc1nc(-c2cc(-c3cccc(S(=O)(=O)N(C)C)c3)ccc2-n2cc(C(F)(F)F)nc2C)c(-c2ccc(OC(F)F)cc2)o1 [Example 541, 3′-(5-(4-(difluoromethoxy)phenyl)-2-methyloxazol-4-yl)-dimethyl-4′-(2-methyl-4-(trifluoromethyl)-1H-imidazol-1-yl)-[1,1′-biphenyl]-3-sulfonamide]",25 nM,90%
"COc1cnc(-c2oc(C)nc2-c2cc(-c3cc(F)c(CO)c(S(C)(=O)=O)c3)ccc2-n2cc(C(F)(F)F)nc2C)cn1 [Example 413, (3-fluoro-3′-(5-(5-methoxypyrazin-2-yl)-2-methyloxazol-4-yl)-4′-(2-methyl-4-(trifluoromethyl)-1H-imidazol-1-yl)-5-(methylsulfonyl)biphenyl-4-yl)methanol]",426 nM,63%
"CS(=O)(=O)c1cccc(-c2ccc(-n3cnc(C(F)(F)F)c3)c(-n3nncc3-c3ccc(Cl)cc3)c2)c1 [Example 13, 5-(4-chlorophenyl)-1-{3′-(methylsulfonyl)-4-[4-(trifluoromethyl)-1H-imidazol-1-yl]biphenyl-3-yl}-1H-1,2,3-triazole]",957 nM,74%
"Cc1nc(-c2ccc(OC(F)(F)F)cc2O)c(-c2cc(-c3cccc(S(C)(=O)=O)c3)ccc2-n2cc(C(F)(F)F)nc2C)o1 [Example 626, 2-(2-methyl-5-(4-(2-methyl-4-(trifluoromethyl)-1H-imidazol-1-yl)-3′-(methylsulfonyl)-[1,1′-biphenyl]-3-yl)oxazol-4-yl)-5-(trifluoromethoxy)phenol]",57 nM,62%
"Cc1nc(C(F)F)cn1-c1ccc(-c2ccc(CO)c(S(C)(=O)=O)c2)cc1-n1nncc1-c1ccc(OC(F)(F)F)cc1 [Example 159, {4′-[4-(difluoromethyl)-2-methyl-1H-imidazol-1-yl]-3-(methylsulfonyl)-3′-(5-{4-[(trifluoromethyl)oxy]phenyl}-1H-1,2,3-triazol-1-yl)biphenyl-4-yl}methanol]",783 nM,97%
"Cc1nc(-c2cc(-c3cccc([S+](C)[O-])c3)ccc2-n2cc(C(F)(F)F)nc2C)c(-c2ccc(OC(F)(F)F)cc2)o1 (stereo not shown) [Example 533, 2-methyl-4-(4-(2-methyl-4-(trifluoromethyl)-1H-imidazol-1-yl)-3′-(methylsulfinyl)-[1,1′-biphenyl]-3-yl)-5-(4-(trifluoromethoxy)phenyl)oxazole]",233 nM,73%
"Cc1nc(C(F)(F)F)cn1-c1ccc(-c2cccc(S(C)(=O)=O)c2)cc1-n1nncc1Cc1ccccc1OC(F)(F)F [Example 123, 1-{3′-(methylsulfonyl)-4-[2-methyl-4-(trifluoromethyl)-1H-imidazol-1-yl]biphenyl-3-yl}-5-({2-[(trifluoromethyl)oxy]phen-yl}methyl)-1H-1,2,3-triazole]",1100 nM,36%
"CCC(F)(F)c1cn(-c2ccc(-c3cccc(S(C)(=O)=O)c3)cc2-c2ocnc2-c2ccc(OC(F)(F)F)cc2)c(C)n1 [Example 364, 5-{4-[4-(1,1-difluoropropyl)-2-methyl-1H-imidazol-1-yl]-3′-(methylsulfonyl)biphenyl-3-yl}-4-{4-[(trifluoromethyl)oxy]phenyl}-1,3-oxazole]",410 nM,55%
"Cc1nc(-c2cc(-c3cccc(S(C)(=O)=O)c3)ccc2-n2cc(Cl)nc2C)c(-c2ccc(OC(F)F)c(F)c2)o1 [Example 466, 4-(4-(4-chloro-2-methyl-1H-imidazol-1-yl)-3′-(methylsulfonyl)biphenyl-3-yl)-5-(4-(difluoromethoxy)-3-fluorophenyl)-2-methyloxazole]",198 nM,84%
"Cc1nc(C(F)(F)F)cn1-c1ccc(-c2cccc(S(C)(=O)=O)c2)cc1-c1nc(CC(C)C)oc1-c1ccc(OC(F)(F)F)cc1 [Example 562, 2-isobutyl-4-(4-(2-methyl-4-(trifluoromethyl)-1H-imidazol-1-yl)-3′-(methylsulfonyl)-[1,1′-biphenyl]-3-yl)-5-(4-(trifluoromethoxy)phenyl)oxazole]",34 nM,77%
"Cc1nc(-c2cc(-c3cc(F)c(CO)c(S(C)(=O)=O)c3)ccc2-n2cc(C(F)(F)F)nc2C)c(-c2ccc(OC(F)F)c(OC3CC3)c2)o1 [Example 387, (3′-(5-(3-cyclopropoxy-4-(difluoromethoxy)phenyl)-2-methyloxazol-4-yl)-3-fluoro-4′-(2-methyl-4-(trifluoromethyl)-1H-imidazol-1-yl)-5-(methylsulfonyl)biphenyl-4-yl)methanol]",19 nM,73%
